From PubChem BioAssay AID1996 come the findings set out here.

Converted amounts (≈) assume the structure as drawn.

For the data set the following is noted: buffer; pH 7.4; 200.0 µM.
Turning to `O=C(CN1CCN(c2ccccn2)CC1)Nc1ccc(F)c(F)c1`, the kinetic solubility (usually solubility judged after dilution from a stock solution rather than from solid) was more than 49.9 µg/mL.
The value for `COc1ccc(C(CCNCc2ccc(OC(C)C)cc2)C(C)C)cc1` (stereo not drawn) was 49.4 µg/mL (≈ 139 µM).
The molecule `CCc1c(C)c2ccc(O)c(CN3CCCC3)c2oc1=O` returned a kinetic solubility of 41.6 µg/mL (≈ 145 µM).
The value for `CC(=O)c1ccc(-n2cc(C#N)c(=O)[nH]c2=O)cc1` was 34.7 µg/mL (≈ 136 µM).
The figure for `Cc1ccc(O)c(CNc2nc3ccccc3n2C(C)C)c1` is 0.6 µg/mL (≈ 2.03 µM).
The value for `O=C(CN1CCCCCC1)Nc1c(Cl)cc(Cl)cc1Cl` was 42.1 µg/mL (≈ 125 µM); that for `Cc1cc(NC(=O)c2ccco2)c(=O)n(Cc2cccc(C(F)(F)F)c2)c1` was less than 0.4 µg/mL.
As for `O=[N+]([O-])c1ccc(Cl)c(S(=O)(=O)/N=C(/Nc2cccnc2)c2ccccc2)c1`, the kinetic solubility was more than 62.5 µg/mL.
The molecule `COc1ccc(C(C)(C)C)cc1NC(=O)C1CC(=O)N(C2CCCC2)C1` (stereo not drawn) yielded a kinetic solubility of more than 53.8 µg/mL.
The value for `O=C1CCCN1CC1CCN(Cc2nc(CC3CC3)no2)CC1` was 42.9 µg/mL (≈ 135 µM).
The figure for `CN(C)c1ccc(P(=O)(OC2CCCCC2)C(O)c2ccncc2)cc1` (stereo not drawn) is 52.8 µg/mL (≈ 141 µM); for `COc1ccc(C(=O)NCCN2CCOCC2)c(OC)c1` it is more than 44.2 µg/mL.
The figure for `CCN1CCC(N2CCN(c3ccc(F)cc3)CC2)CC1` is 35.5 µg/mL (≈ 122 µM); for `O=C(c1ccccc1)N1CCN(CCc2ccccn2)CC1` it is more than 44.3 µg/mL; for `O=C(NCCc1ccccc1F)C1CC(=O)N(c2ccccc2)C1` (stereo not drawn) it is 47.8 µg/mL (≈ 146 µM).
`Cc1ccnc(NCc2c(O)ccc3ccccc23)c1` registered a solubility (kinetic) of 9.2 µg/mL (≈ 34.8 µM).
For the molecule `Cc1ccc(N(CC(=O)N2CCN(Cc3ccccc3)CC2)S(C)(=O)=O)cc1C`, the solubility (kinetic) was found to be 50.9 µg/mL (≈ 122 µM).
The value for `Nc1ccc(-c2nc3ncccc3o2)cc1` was more than 31.7 µg/mL.
`CCCC(=O)C1=C(N(C)c2ccccc2)CC(C)(C)CC1=O` gave a kinetic solubility of 32.5 µg/mL (≈ 109 µM).
The value for `Cc1cccn2cc(-c3cccc(NC(=O)c4cccs4)c3)nc12` was 5.5 µg/mL (≈ 16.5 µM).
The value for `COc1ccc(CN(C)C(=O)c2sccc2-c2ccccc2)c(OC)c1` was 12 µg/mL (≈ 32.7 µM); that for `Cc1cc(Br)ccc1NC(=S)N1CCOCC1` was more than 47.3 µg/mL.
The value for `CN1CCN(C=Nc2nc3ccccc3nc2N2CCCC2)CC1` was more than 48.7 µg/mL; that for `CC(C)n1c(NCc2ccccc2O)nc2ccccc21` was 15.8 µg/mL (≈ 56.2 µM).
`Cc1cc2nc(-c3ccc[nH]c3=O)[nH]c2cc1C`: the kinetic solubility was 3.3 µg/mL (≈ 13.8 µM).
The value for `CCOCCCNC(=O)c1ccc(NC(=O)C2CCCO2)cc1` (stereo not drawn) was more than 48.1 µg/mL; that for `C/C(=C\C(=O)c1ncc(C(F)(F)F)cc1Cl)N(C)C` was 41 µg/mL (≈ 140 µM).
The value for `Cc1cc(NC(=O)CN2CCN(C)CC2)no1` was 22.4 µg/mL (≈ 94 µM).
The figure for `O=C(NC1CCCCC1)C1CCCN1C(=O)Nc1ccccc1` (stereo not drawn) is more than 47.3 µg/mL; for `COc1ccc(-c2cc(C(=O)Nc3cccc(O)c3)no2)cc1` it is less than 0.3 µg/mL; for `Cc1nc([N+](=O)[O-])c(N2CCOCC2)n1Cc1ccccc1` it is 44.7 µg/mL (≈ 148 µM).
`O=C(NCc1ccc2c(c1)OCO2)Nc1ccc2nsnc2c1` returned a solubility (kinetic) of 2.5 µg/mL (≈ 7.61 µM).
`Cc1cccc2sc(NC(=O)CCNC(=O)c3ccco3)nc12` returned a solubility (kinetic) of 5.6 µg/mL (≈ 17 µM).
The value for `COc1cccc2c(Cl)c(CCCl)c(C)nc12` was 1.1 µg/mL (≈ 4.07 µM).
The figure for `O=C(O)CC(CC(=O)Nc1ccccc1C(=O)O)c1ccccc1` (stereo not drawn) is more than 49.1 µg/mL; for `CC(=O)c1cc2c(cc1NC(=O)c1ccc(Cl)cc1)OCCO2` it is less than 0.7 µg/mL; for `CC(=O)NCCc1nc2cc(NC(=O)c3ccccc3)ccc2n1C` it is more than 50.5 µg/mL.
The figure for `CN(C)c1ccc(CC2C(=O)Nc3ccccc32)cc1` (stereo not drawn) is 37.3 µg/mL (≈ 140 µM); for `NS(=O)(=O)c1ccc(NC(=O)c2ccc(S(=O)(=O)N3CCCCCC3)cc2)cc1` it is 6.3 µg/mL (≈ 14.4 µM); for `O=C(CCc1ccccc1)NCCc1nc2ccccc2[nH]1` it is more than 44 µg/mL.
With `CCS(=O)(=O)Nc1cccc(-c2cn3c(n2)SCC3)c1`, the solubility (kinetic) was more than 46.4 µg/mL.
The figure for `Cc1ccc(S(=O)(=O)N(C)CC(=O)N2CC(C)OC(C)C2)cc1` (stereo not drawn) is more than 51.1 µg/mL.
The figure for `O=C(NCc1nc(-c2ccc(C(F)(F)F)cc2)no1)c1cccs1` is 7.1 µg/mL (≈ 20.1 µM); for `Cc1nc(-c2ccc(-c3ccon3)s2)no1` it is 16.6 µg/mL (≈ 71.2 µM); for `O=C(Nc1ccnc(-c2ccncc2)n1)c1ccccc1Cl` it is 0.9 µg/mL (≈ 2.9 µM).
The figure for `O=C(c1ccccc1)C1CCN(C(=O)c2ccco2)CC1` is 41.6 µg/mL (≈ 147 µM); for `COc1ccccc1NC(=O)CN1C(=O)COc2ccc(C)cc21` it is 16.2 µg/mL (≈ 49.6 µM); for `CN1c2ccccc2Sc2cc(N)ccc21` it is 25.6 µg/mL (≈ 112 µM).
On to `O=C(COC(=O)c1cccnc1Cl)NC1CCCc2ccccc21` (stereo not drawn), for which the kinetic solubility is more than 51.7 µg/mL.
The figure for `N/C(COc1ccc(Cl)cc1Cl)=N\O` is 28.8 µg/mL (≈ 123 µM); for `O=C1Nc2ccccc2C1(O)c1ccccc1O` (stereo not drawn) it is more than 36.2 µg/mL.
The value for `O=C(Nc1ccccc1)OCC1CCCO1` (stereo not drawn) was more than 33.2 µg/mL; that for `Cc1ccc(N(C)S(=O)(=O)c2cccc(C(=O)N3CCN(Cc4ccccc4)CC3)c2)cc1` was 23 µg/mL (≈ 49.6 µM).
